Target: T1, human kinase Mps-1 (Homo sapiens, UniProt P33981)
T1 construct: N-terminally GST-tagged human full length recombinant Mps-1 kinase; GST (N); purchased Invitrogen, Karslruhe, Germany PV4071
T1 sequence (P33981 1-857): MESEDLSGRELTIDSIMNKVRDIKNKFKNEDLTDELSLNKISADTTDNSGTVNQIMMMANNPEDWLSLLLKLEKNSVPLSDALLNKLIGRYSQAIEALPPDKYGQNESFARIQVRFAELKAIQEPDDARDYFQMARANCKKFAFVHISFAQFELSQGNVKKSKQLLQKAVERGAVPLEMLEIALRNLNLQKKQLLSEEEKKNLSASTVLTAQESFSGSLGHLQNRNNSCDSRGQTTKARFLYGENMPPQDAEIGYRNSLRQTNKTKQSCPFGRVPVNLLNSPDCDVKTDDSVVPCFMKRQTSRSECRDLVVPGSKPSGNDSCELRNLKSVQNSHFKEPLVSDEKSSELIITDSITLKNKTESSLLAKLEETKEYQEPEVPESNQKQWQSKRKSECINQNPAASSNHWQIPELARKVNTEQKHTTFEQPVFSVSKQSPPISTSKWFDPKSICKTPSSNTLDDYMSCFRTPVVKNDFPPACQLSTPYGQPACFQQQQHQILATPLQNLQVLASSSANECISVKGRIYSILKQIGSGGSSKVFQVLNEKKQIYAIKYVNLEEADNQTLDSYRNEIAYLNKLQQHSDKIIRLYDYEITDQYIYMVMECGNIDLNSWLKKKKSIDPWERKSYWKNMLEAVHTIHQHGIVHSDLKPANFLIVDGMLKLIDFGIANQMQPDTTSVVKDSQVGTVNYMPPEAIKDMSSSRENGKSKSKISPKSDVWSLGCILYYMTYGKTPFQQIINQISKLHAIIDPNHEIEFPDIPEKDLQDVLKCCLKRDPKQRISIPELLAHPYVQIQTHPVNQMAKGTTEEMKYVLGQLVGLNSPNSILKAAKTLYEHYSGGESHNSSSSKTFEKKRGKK
Experiment: Mps-1 kinase assay (TR-FRET)
Type: biochemical
Details: GST-tagged human full length recombinant Mps-1; 10 μM ATP; 1 μM peptide substrate; 60 min at 22° C.
Procedure, shortened: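 N-terminally GST-tagged full-length recombinant human Mps-1, about 1 nM final, phosphorylates a biotinylated peptide. Product detected by TR-FRET from Eu-anti-phospho-Ser/Thr antibody to streptavidin-XLent after 1 h at 22° C.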

Structure (SMILES)	IC50 [nM]
O=C(NC1CC1)c1ccc(-c2cnc3c(NCCCO)nc(-c4ccncc4)cn23)cc1 [Example 1-85, N-cyclopropyl-4-{8-[(3-hydroxypropyl)amino]-6-(pyridin-4-yl)imidazo[1,2-a]pyrazin-3-yl}benzamide]	9.1
Cc1cc(-c2cnc3c(NCCC(F)(F)F)nc(-c4cn[nH]c4)cn23)ccc1C(=O)NC1CC1 [Example 1-78, N-cyclopropyl-2-methyl-4-{6-(1H-pyrazol-4-yl)-8-[(3,3,3-trifluoro-propyl)amino]imidazo [1,2-a]pyrazin-3-yl} benzamide]	4.7
CC(C)(O)CNc1nc(-c2ccncc2)cn2c(-c3ccc(C(=O)NC4CC4)cc3)cnc12 [Example 1-90, N-cyclopropyl-4-{8-[(2-hydroxy-2-methylpropyl)amino]-6-(pyridin-4-yl)imidazo[1,2-a]pyrazin-3-yl} benzamide]	5
CC(C)CNc1nc(-c2ccnc(Cl)c2)cn2c(-c3ccc(C(=O)NC4CC4)cc3)cnc12 [Example 1-7, 4-{6-(2-chloropyridin-4-yl)-8-[(2-methylpropyl)amino]imidazo[1,2-a]pyrazin-3-yl}-N-cyclo-propylbenzamide]	4.2
Cc1cc(-c2cnc3c(NC[C@H](O)C(F)(F)F)nc(-c4ccnn4C)cn23)ccc1C(=O)NC1CC1 [Example 3-38, N-cyclopropyl-2-methyl-4-{6-(1-methyl-1H-pyrazol-5-yl)-8-[(3,3,3-trifluoro-2-hydroxypropyl)amino]imidazo[1,2-a]pyrazin-3-yl}benzamide]	7.2
C=CCNc1nc(-c2ccccc2)cn2c(-c3ccc(C(=O)NC4CC4)cc3)cnc12 [Example 3-39, 4-[8-(Allylamino)-6-phenylimidazo[1,2-a]pyrazin-3-yl]-N-cyclopropylbenzamide]	3.6
CC(C)CNc1nc(-c2ccn[nH]2)cn2c(-c3ccc(C(=O)NC4CC4)cc3)cnc12 [Example 1-30, N-cyclopropyl-4-{8-[(2-methylpropyl)amino]-6-(1H-pyrazol-5-yl)imidazo[1,2-a]pyrazin-3-yl}benzamide]	1.7
O=C(NC1CC1)c1ccc(-c2cnc3c(NCCOCC4CCCO4)nc(-c4ccccc4)cn23)cc1 (stereo not shown) [Example 3-41, N-cyclopropyl-4-(6-phenyl-8-{[2-(tetrahydrofuran-2-ylmethoxy)ethyl]amino}imidazo[1,2-a]pyrazin-3-yl)benzamide]	20.4
CC(C)CNc1nc(-c2cc3ccccc3s2)cn2c(-c3ccc(C(=O)NC4CC4)cc3)cnc12 [Example 1-12, 4-{6-(1-benzothiophen-2-yl)-8-[(2-methylpropyl)amino]imidazo[1,2-a]pyrazin-3-yl}-N-cyclo-propylbenzamide]	142
CC(C)CNc1nc(-c2cncnc2)cn2c(-c3ccc(C(=O)NC4CC4)cc3)cnc12 [Example 1-17, N-cyclopropyl-4-{8-[(2-methylpropyl)amino]-6-(pyrimidin-5-yl)imidazo [1,2-a]pyrazin-3-yl} benzamide]	16.5
CC(=O)NCCNc1nc(-c2ccncc2)cn2c(-c3ccc(C(=O)NC4CC4)cc3)cnc12 [Example 3-14, 4-[8-{[2-(acetylamino)ethyl]amino}-6-(pyridin-4-yl)imidazo[1,2-a]pyrazin-3-yl]-N-cyclo-propylbenzamide]	30.7
N#CCCNc1nc(-c2cccc(CC(N)=O)c2)cn2c(-c3ccc(C(=O)NC4CC4)cc3)cnc12 [Example 1-86, 4-{6-[3-(2-amino-2-oxo-ethyl)phenyl]-8-[(2-cyano-ethyl)amino]imidazo[1,2-a]pyrazin-3-yl}-N-cyclo-propylbenzamide]	3.9
CC(C)CNc1nc(-c2ccc3c(ccn3C)c2)cn2c(-c3ccc(C(=O)NC4CC4)cc3)cnc12 [Example 1-6, N-cyclopropyl-4-{6-(1-methyl-1H-indol-5-yl)-8-[(2-methylpropyl)amino]imidazo[1,2-a]pyrazin-3-yl}benzamide]	6.8
O=C(NC1CC1)c1ccc(-c2cnc3c(NCC4CCCCO4)nc(-c4ccncc4)cn23)cc1 (stereo not shown) [Example 3-36, N-cyclopropyl-4-{6-(pyridin-4-yl)-8-[(tetrahydro-2H-pyran-2-ylmethyl)amino]imidazo[1,2-a]pyrazin-3-yl} benzamide]	3.5
Cc1nnc(-c2ccc(-c3cn4c(-c5ccc(C(=O)NC6CC6)cc5)cnc4c(NCC(C)C)n3)cc2)o1 [Example 1-22, N-cyclopropyl-4-{6-[4-(5-methyl-1,3,4-oxadiazol-2-yl)phenyl]-8-[(2-methylpropyl)amino]imidazo[1,2-a]pyrazin-3-yl}benzamide]	2.3
NS(=O)(=O)CCNc1nc(-c2ccncc2)cn2c(-c3ccc(C(=O)NC4CC4)cc3)cnc12 [Example 3-35, N-cyclopropyl-4-{6-(pyridin-4-yl)-8-[(2-sulfamoylethyl)amino]imidazo [1,2-a]pyrazin-3-yl} benzamide]	1.9
NCCCCNc1nc(-c2cccc(CC(N)=O)c2)cn2c(-c3ccc(C(=O)NC4CC4)cc3)cnc12 [Example 1-95, 4-{8-[(4-Aminobutyl)amino]-6-[3-(2-amino-2-oxoethyl)phenyl]imidazo[1,2-a]pyrazin-3-yl}-N-cyclo-propylbenzamide]	19.2
O=C(NC1CC1)c1ccc(-c2cnc3c(NCCC(F)(F)F)nc(-c4ccncc4)cn23)cc1F [Example 1-53, N-cyclopropyl-2-fluoro-4-{6-(pyridin-4-yl)-8-[(3,3,3-trifluoropropyl)amino]imidazo[1,2-a]pyrazin-3-yl}benzamide]	3.8
COc1ncc(-c2cn3c(-c4ccc(C(=O)NC5CC5)cc4)cnc3c(NCC(C)C)n2)cn1 [Example 1-3, N-cyclopropyl-4-{6-(2-methoxypyrimidin-5-yl)-8-[(2-methylpropyl)amino]imidazo[1,2-a]pyrazin-3-yl}benzamide]	12.7

Results, then the molecule that gave them:

IC50 [nM]	Structure (SMILES)
10.4	Cc1cc(-c2cnc3c(NCC4CC4C)nc(-c4ccc(F)cc4)cn23)ccc1C(=O)NC1CC1 (stereo not shown) [Example 6-3, N-cyclopropyl-4-[6-(4-fluorophenyl)-8-{[(2-methylcyclopropyl)methyl]amino}imidazo[1,2-a]pyrazin-3-yl]-2-methylbenzamide]
< 1	Cc1cc(-c2cnc3c(NCCC(F)(F)F)nc(Sc4cccc(F)c4)cn23)ccc1C(=O)NC1CC1 [Example 15-3, N-cyclopropyl-4-{6-[(3-fluorophenyl)sulfanyl]-8-[(3,3,3-trifluoropropyl)amino]imidazo[1,2-a]pyrazin-3-yl}-2-methylbenzamide]
35.7	Cc1cc(-c2cnc3c(NCC4CCCO4)nc(C4=CCOCC4)cn23)ccc1C(=O)NC1CC1 (stereo not shown) [Example 6-4, N-cyclopropyl-4-{6-(3,6-dihydro-2H-pyran-4-yl)-8-[(tetrahydrofuran-2-ylmethyl)amino]imidazo[1,2-a]pyrazin-3-yl}-2-methylbenzamide]
199	Cc1cc(-c2cnc3c(NCC4CCC(N(C)C)CC4)nc(C4=CCOCC4)cn23)ccc1C(=O)NC1CC1 (stereo not shown) [Example 6-18, N-cyclopropyl-4-[6-(3,6-dihydro-2H-pyran-4-yl)-8-({[4-(dimethylamino)cyclohexyl]methyl}amino)imidazo[1,2-a]pyrazin-3-yl]-2-methylbenzamide]
7.2	CC(C)CNc1nc(CCCO)cn2c(-c3ccc(C(=O)NC4CC4)cc3)cnc12 [Example 7-3, N-cyclopropyl-4-{6-(3-hydroxypropyl)-8-[(2-methylpropyl)amino]imidazo[1,2-a]pyrazin-3-yl}benzamide]
1.7	Cc1cc(-c2cnc3c(NCC(C)(C)O)nc(Oc4cccc(F)c4)cn23)ccc1C(=O)NC1CC1 [Example 13-5, N-cyclopropyl-4-{6-(3-fluorophenoxy)-8-[(2-hydroxy-2-methylpropyl)amino]imidazo[1,2-a]pyrazin-3-yl}-2-methyl benzamide]
2	Cc1cc(-c2cnc3c(NCC(C)(C)O)nc(Oc4ccccc4)cn23)ccc1C(=O)NC1CC1 [Example 13-4, N-cyclopropyl-4-{8-[(2-hydroxy-2-methylpropyl)amino]-6-phenoxy-imidazo[1,2-a]pyrazin-3-yl}-2-methylbenzamide]
3.9	CC(C)CNc1nc(C2CCN(C)CC2)cn2c(-c3ccc(C(=O)NC4CC4)cc3)cnc12 [Example 7-6, N-cyclopropyl-4-{6-(1-methylpiperidin-4-yl)-8-[(2-methylpropyl)amino]imidazo[1,2-a]pyrazin-3-yl}benzamide]
338	CCN1CCC(CNc2nc(C3=CCOCC3)cn3c(-c4ccc(C(=O)NC5CC5)c(C)c4)cnc23)C1 (stereo not shown) [Example 6-19, N-cyclopropyl-4-[6-(3,6-dihydro-2H-pyran-4-yl)-8-{[(1-ethyl-pyrrolidin-3-yl)methyl]amino}imidazo[1,2-a]pyrazin-3-yl]-2-methylbenzamide]
